From US20070123556A1, “Treatment with Sigma Receptor Agonists Post-Stroke” (UNIVERSITY OF SOUTH FLORIDA, priority 2005, published 2007)
Where two headings read alike, the source gives them in different places.

Columns and labels:
[1] = test system: cultured cortical neurons; test: in vitro ischemia (sodium azide/glucose deprivation), fura-2 [Ca2+]i; type: cell-based, rat; conditions: for IC50: Langmuir-Hill fit, read-out: IC50 (half-maximal concentration), inhibition of ischemia-evoked increases in [Ca2+]i
Description: The effects of sigma receptors on ischemia-induced changes in intracellular calcium concentrations were studied in cultured cortical neurons from embryonic (E18) rats. Dams were euthanatized by decapitation, uterus removed, and embryos dissected out and placed in isotonic buffer containing (in mM): 137 NaCl, 5 KCl, 0.2 NaH2PO4, 0.2 KH2PO4, 5.5 glucose, 6 sucrose (pH 7.4 with NaOH). Cortex were excised and minced, and tissue digested in isotonic buffer containing 0.25% trypsin/EDTA for 10 min at 37° C. and added to 3× volume of high glucose culture media (Dulbecco's Modified Eagle Media; Invitrogen, Inc., Carlsbad, Calif.), 10% (v/v) fetal calf serum, 100 U/ml penicillin and 0.1 mg/ml streptomycin. Cells were counted on a hemocytometer, plated (0.5×10^6 cells) on 18 mm coverslips coated with poly-l-lysine, and incubated at 37° C. under a 95% air, 5% CO2 atmosphere. After 24 hr the media was replaced with Neurobasal (Invitrogen) medium supplemented with B27 (Invitrogen) and 0.5 mM 1-glutamine to limit astrocyte proliferation in the cultures. Cells were used after 14-21 days in culture.
Intracellular free-calcium was measured using the calcium sensitive dye, fura-2 as previously described (DeHaven and Cuevas, 2004). Cells plated on coverslips were incubated for 1 hour at room temperature in physiological saline solution (PSS) consisting of (in mM): 140 NaCl, 3 KCl, 2.5 CaCl2, 1.2 MgCl2, 7.7 glucose and 10 HEPES (pH to 7.2 with NaOH), which also contained 1 μM of the membrane permeable ester form of fura-2, acetoxymethylester (fura-2 AM) and 0.1% dimethyl sulfoxide (DMSO). The coverslips were then washed in PSS (fura-2 AM free) prior to the experiments being carried out. All solutions were applied via a rapid application system identical to that previously described (Cuevas and Berg, 1998).
A DG-4 high-speed wavelength switcher (Sutter Instruments Co., Novato, Calif.) was used to apply alternating excitation light, and fluorescent emission was captured using a Sensicam digital CCD camera (Cooke Corporation, Auburn Hills, Mich.) and recorded with Slidebook 3.0 software (Intelligent Imaging Innovations, Denver, Colo.). Changes in [Ca^2+]i were calculated using the Slidebook 3 software (Intelligent Imaging Innovations) using methods described previously (DeHaven and Cuevas, 2004).
In vitro ischemia was achieved using the sodium azide/glucose deprivation model.
The control bath solution for all experiments was a physiological saline solution (PSS) containing (in mM) 140 NaCl, 1.2 MgCl2, 3 KCl, 2.5 CaCl2, 7.7 glucose and 10 HEPES, pH to 7.2 with NaOH. All drugs were applied in this solution unless otherwise noted. In vitro ischemia was induced by addition of the cytochrome oxidase inhibitor, NaN3 (4 mM), and removal of glucose from the PSS. For experiments in which multiple ischemic episodes were induced in a single cell, the order of drug application was alternatively reversed to compensate for any effects due to rundown, desensitization or ischemic preconditioning. For experiments with metaphit, cells were preincubated in 50 μM metaphit during the last 15 mm of fura-2 loading and immediately prior to experiments being conducted. The metaphit was washed off for 5 min in the bath using PSS.

[2] = test system: transient ischemia model (MCAO); conditions: intravenous, 1-2 hr following reperfusion; cited from earlier work
[3] = molecular target: sigma-1 receptors (Homo sapiens, UniProt Q99720); conditions: cited from earlier work
sigma-1 receptors, sequence (Q99720 whole entry): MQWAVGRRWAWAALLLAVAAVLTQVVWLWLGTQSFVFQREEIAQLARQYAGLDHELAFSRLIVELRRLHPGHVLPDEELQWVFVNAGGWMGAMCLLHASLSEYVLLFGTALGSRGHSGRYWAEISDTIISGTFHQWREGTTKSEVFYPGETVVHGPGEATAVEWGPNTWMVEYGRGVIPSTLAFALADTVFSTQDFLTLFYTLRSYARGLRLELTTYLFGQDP

[4] = test system: rat hippocampal slices; conditions: rat hippocampal slices (Thurgur and Church, 1998); read-out: value reported for inhibition of epileptiform activity; cited from earlier work
[5] = test system: glutamate receptors; conditions: cited from earlier work
[6] = test system: cultured cortical neurons; test: spontaneous Ca2+ transients, fura-2 [Ca2+]i; type: cell-based, rat
[7] = test system: voltage-gated Ca2+; conditions: rat intracardiac neurons; read-out: IC50 inhibition of voltage-gated Ca2+; cited from earlier work
[8] = test system: ASIC channels; test: low-pH (pH 6.0) evoked ASIC-mediated increases in [Ca2+]i; type: cell-based, rat; conditions: 50 μM, pH 6.0, reversible
[9] = molecular target: sigma-2 receptors (Homo sapiens, UniProt Q5BJF2); conditions: cited from earlier work
sigma-2 receptors, sequence (Q5BJF2 whole entry): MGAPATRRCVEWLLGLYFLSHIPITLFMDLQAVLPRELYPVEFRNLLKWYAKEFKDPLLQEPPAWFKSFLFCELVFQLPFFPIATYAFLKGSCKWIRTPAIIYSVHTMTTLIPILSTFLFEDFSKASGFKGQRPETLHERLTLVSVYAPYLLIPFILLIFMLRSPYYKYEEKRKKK

[10] = test system: voltage-gated K channels; conditions: rat intracardiac neurons; read-out: IC50 inhibition of voltage-gated K channels; cited from earlier work
[11] = test system: delayed outwardly rectifying K+ channels; conditions: frog pituitary melanotrophs; read-out: IC50 inhibition of delayed outwardly rectifying K+ channels; cited from earlier work

C/C=C(/C)C(=O)O[C@H]1C(C)=C2[C@H]([C@@H]1OC(=O)CCCCCCC)[C@@](C)(OC(C)=O)C[C@H](OC(=O)CCC)[C@@]1(O)[C@H]2OC(=O)[C@@]1(C)O [thapsigargin]
effect on ischemia-induced peak elevation in [Ca2+]i ([1]; 10 μM, thapsigargin by preincubation): decreased the peak elevation

c1ccc(CCCCN2CCC(c3ccccc3)CC2)cc1 [PPBP, 4-phenyl-1-(4-phenylbutyl)piperidine]
decrease in neurodegeneration in brain sections [2]: 40%

CCN(CC)CCOCCOC(=O)C1(c2ccccc2)CCCC1 [carbetapentane]
affinity of sigma-1 receptors relative to sigma-2 receptors ([3]; sigma-1 over sigma-2): > 30 fold
IC50 [1]: 13 µM
IC50 ([1]; Rattus norvegicus, Cortical neurone): 13.3 µM
IC50 [4]: 38 µM
inhibition of calcium elevations evoked by glutamate application ([5]; 100 μM): not
effect on spontaneous increases in [Ca2+]i (number of events) ([6]; 100 μM): significant decrease

ryanodine
effect on ischemia-induced peak elevation in [Ca2+]i [1]: did not significantly alter

ibogaine
IC50 [7]: 31 µM
effect on ischemia-induced elevations in [Ca2+]i ([1]; 1-100 μM): failed to inhibit
decrease of low-pH evoked increases in [Ca2+]i [8]: 70%
affinity of sigma-2 receptors relative to (+)-pentazocine [9]: ~6 fold
affinity of sigma-2 receptors relative to sigma-1 receptors ([9]; sigma-2 over sigma-1): > 40 fold
effect on number of spontaneous calcium events ([6]; 50 μM): significantly decreased

O=C(OCCN1CCOCC1)C1(c2ccccc2)CCCCC1 [PRE-084]
decrease of ischemia-induced elevations in [Ca2+]i ([1]; 10 μM): 26±4%
decrease of ischemia-induced elevations in [Ca2+]i ([1]; 100 μM): 58±1%

CC(C)=CCN1CCC2(C)c3cc(O)ccc3CC1C2C (single isomer, unassigned; (+)) [(+)-pentazocine]
affinity of sigma-1 receptors relative to ibogaine [3]: ~2000 fold
IC50 [10]: 42 µM
decrease of ischemia-induced elevations in [Ca2+]i ([1]; 10 μM): 37±5%
decrease of ischemia-induced elevations in [Ca2+]i ([1]; 10 μM, listed as (+) pentazocine): ~60%
decrease of ischemia-induced elevations in [Ca2+]i ([1]; 100 μM): 49±4%
decrease of low-pH evoked increases in [Ca2+]i [8]: 50%
IC50 [11]: 37 µM

C=CCN1CCC2(C)c3cc(O)ccc3CC1C2C (single isomer, unassigned; (+)) [(+)SKFIOO47]
inhibition of calcium elevations evoked by glutamate application ([5]; 10 μM): inhibit

O=C(CCCN1CCC(O)(c2ccc(Cl)cc2)CC1)c1ccc(F)cc1 [haloperidol]
inhibition of calcium elevations evoked by glutamate application ([5]; 10 μM): inhibit

metaphit
ischemia-induced elevation in [Ca2+]i ([1]; preincubation in 50 μM metaphit, no DTG): 495 ± 68 nM

NC1=N[C@H](O)[C@H]2[C@H]3O[C@]4(O)O[C@@H]([C@@H](O)[C@@]2(N1)[C@@H]4O)[C@]3(O)CO [TTX, tetrodotoxin]
decrease of ischemia-evoked increase in [Ca2+]i [1]: 65±4%

CN(C)CCN(C)CCc1ccc(Cl)c(Cl)c1 [BD-1047, N-[2-(3,4-dichlorophenyl)ethyl]-N-methyl-2-(dimethylamino)ethylamine]
reduction of the effects of DTG on ischemia-evoked calcium transients ([1]; 1 pM BD-1047, with DTG): 15%
reduction of the effects of DTG on ischemia-evoked calcium transients ([1]; 10 pM BD-1047, with DTG): 55%
